Experimental findings from ChEMBL document CHEMBL3988442, “University of Dundee, Small-Polar-MMV Screening Library” (2021) are described below.

For the experiment, the system named is Schistosoma mansoni. The experiment is described as follows: High throughput screening of compounds against Schistosoma mansoni motility. In kind it is functional. Also on record: dose or concentration left out as unconfirmed.

For the compound `Cn1cnnc1S(=O)(=O)C1CCN(S(=O)(=O)c2c(Cl)cccc2Cl)CC1`, the “Percent Effect” value is -2.116%.

In the case of `CN1C(=O)C(C)(C)COc2cc(NS(=O)(=O)c3ccccc3)ccc21`, the “Percent Effect” value stood at 35.25%.

Regarding `Cc1cnn(CC2CN(CCc3ccncc3)CCO2)c1` (configuration not stated), the “Percent Effect” value is -83.94%.

Regarding `CNC(=O)CCNC(=O)c1cccc(Cn2nc(C)cc2C)c1`, the “Percent Effect” value was -2.451%.

For `Cc1cccnc1CN1CCC(c2nnc(Cn3cccn3)n2C)CC1`, the “Percent Effect” value is given as -11.55%.

On to `CC(C)(CO)NC(=O)C1CCC(=O)N(Cc2ccc(Cl)cc2)C1` (configuration not stated), for which the “Percent Effect” value was -0.822%.

In the case of `COc1cc(C)nc(N2CCN(Cc3nccn3C)CC2)n1`, the “Percent Effect” value is given as -41.68%.

Consider `OCCC1CN(C2CCC2)CCN1C1CCCC1` (configuration not stated), for which the “Percent Effect” value is -52.06%.

With `Cc1cnn(CCC(=O)N2CCOC(c3nc(C(C)(C)C)n[nH]3)C2)c1` (configuration not stated), the “Percent Effect” value was -4.27%.

In the case of `CCN1CCCC1CN(CCN(C)C)S(=O)(=O)c1ccc(C#N)cc1` (configuration not stated), the “Percent Effect” value is 8.845%.

Turning to `CCCNC(=O)CSc1nnc2[nH]c(=O)cc(CC)n12`, the “Percent Effect” value was -63.88%.

In the case of `NC(=O)NCC(=O)N1C[C@H]2CC[C@@H]1CN(Cc1ccccc1)C2`, the “Percent Effect” value is given as -13.56%.

With `O=C(CSc1ccc2c(c1)OCCO2)NS(=O)(=O)C1CCCCC1`, the “Percent Effect” value worked out at 7.796%.

On to `CCS(=O)(=O)N1CCC2(CCCN(Cc3cc(OC)ccc3F)C2)C1` (configuration not stated), for which the “Percent Effect” value is on record as 49.58%.

In the case of `O=C(c1cccc(S(=O)(=O)NCCCc2ncc[nH]2)c1)N1CCOCC1`, the “Percent Effect” value is reported as -82.46%.

On to `CCn1c(N)nc2cc(C(=O)NCCc3ccccc3C)cnc21`, for which the “Percent Effect” value is given as -46.13%.

For the compound `CN(C)CCN(Cc1cccc(C(F)(F)F)c1)C(=O)c1cc[nH]n1`, the “Percent Effect” value worked out at 19.83%.

For `Cc1ncsc1C(=O)N1CCCC(c2noc(C(C)C)n2)C1` (configuration not stated), the “Percent Effect” value is -12.34%.

For the compound `Cc1ccc(C(=O)N2CCCC2c2nnc3n2CCCCC3)o1` (configuration not stated), the “Percent Effect” value was -40.92%.

On to `CC(CN1CCC2(CC1)c1nc[nH]c1CCN2S(C)(=O)=O)C(F)(F)F` (configuration not stated), for which the “Percent Effect” value is recorded as 2.483%.

For `CCc1nc(CN2CCCC(N(C)Cc3cnc(C)s3)C2)no1` (configuration not stated), the “Percent Effect” value is 23.33%.

For `NC(=O)CN1CCCN(C(=O)c2ccn(-c3ccccc3)n2)CC1`, the “Percent Effect” value is listed as -17.53%.

On to `COc1ccccc1CC(=O)NCCCN1CCCC1C(=O)N(C)C` (configuration not stated), for which the “Percent Effect” value is on record as -6.29%.

For `Cc1cc(N2CCN(Cc3nccn3C)CC2)cc(C)n1`, the “Percent Effect” value is -24.56%.

For `CCCc1cc(NC2CCc3ncnn3C2)n2ncnc2n1` (configuration not stated), the “Percent Effect” value is -6.308%.

For `Cn1cc(-c2csc(N3CCOCC3)n2)cn1`, the “Percent Effect” value came out at 7.634%.

Consider `CCN(c1ccc(C(=O)N2CCCC(C)C2)cc1)S(=O)(=O)CC` (configuration not stated), for which the “Percent Effect” value was -11.81%.

With `CSCCC(=O)N1CCC(Oc2cc(C)ccc2F)(C(=O)O)CC1`, the “Percent Effect” value was 12.24%.

Take `CN(CCC(F)(F)F)C(=O)[C@H]1CSCN1C(=O)OC(C)(C)C`: the “Percent Effect” value is listed as -27.39%.

With `COCc1cc(NCc2cc(F)ccc2F)n2nccc2n1`, the “Percent Effect” value is recorded as -61.56%.

For the compound `O=S(=O)(NCC1(O)CCOc2ccccc21)c1cccs1` (configuration not stated), the “Percent Effect” value was -21.06%.

For `CCn1nc2c(cc1=O)CN(Cc1nc3ccccc3c(=O)[nH]1)CC2`, the “Percent Effect” value was -62.65%.

As for `O=C(c1ccccn1)N1CCCC(c2nccn2Cc2ccncc2)C1` (configuration not stated), the “Percent Effect” value is recorded as -73.06%.

Regarding `O=C(c1ccc(=O)[nH]n1)N1CC(c2nc(Cc3ccccc3)no2)C1`, the “Percent Effect” value is recorded as -36.12%.

Regarding `CC1CCN(CCNC(=O)c2cncnc2C(C)C)CC1`, the “Percent Effect” value is listed as -17.46%.

On to `CC(=O)NCC1CCN(CC2CCOc3ccccc3C2)CC1` (configuration not stated), for which the “Percent Effect” value was -62.7%.

As to `O=C(c1cc(Cl)c2c(c1)OCO2)N1CCN(c2ccccn2)CC1`, the “Percent Effect” value is listed as -95.4%.

For `Cc1nc(C(C)(C)NC(=O)Nc2cccc(C#N)c2)no1`, the “Percent Effect” value is -35.79%.

Take `CCc1cnc(CN(C)C2CCN(CCS(C)(=O)=O)C2)o1` (configuration not stated): the “Percent Effect” value is -9.705%.

Regarding `Cc1cc(C)n(CC(=O)N2CCC(c3nc(C)no3)CC2)n1`, the “Percent Effect” value is -18.96%.

In the case of `Cc1cc(N2CCC(c3nnc(CN(C)C)n3C3CC3)CC2)ccn1`, the “Percent Effect” value is recorded as -0.2407%.

Take `Cc1cccc(C(=O)N2CCN(S(C)(=O)=O)[C@@H](C)C2)c1C`: the “Percent Effect” value is given as -56.44%.

Regarding `CC(C)NC(=O)c1nnn(-c2cccc(C(F)(F)F)c2)c1N`, the “Percent Effect” value stood at 32.01%.

As for `Cc1ccc(N2CCN(C(=O)COc3nccc(C)n3)CC2)nn1`, the “Percent Effect” value is -46.68%.

Take `CCn1nc(C(C)C)cc1C(=O)NCCCOC`: the “Percent Effect” value is -51.54%.

As to `O=C(c1cc(Cl)cc(Cl)c1)N1CCN(c2nccs2)CC1`, the “Percent Effect” value is reported as -19.81%.

Turning to `CCc1nc(CN2CCCN(Cc3cnn(C)c3)CC2)no1`, the “Percent Effect” value is given as -82.4%.

Regarding `COCC(NC(=O)c1cc[nH]n1)c1cccc(C(F)(F)F)c1` (configuration not stated), the “Percent Effect” value is -87.52%.

`Cn1cc(CCC(=O)N2C[C@H]3CC[C@@H]2CN(Cc2ccccc2)C3)cn1`: the “Percent Effect” value is listed as -38.92%.

In the case of `CCCc1cc(=O)[nH]c2nnc(SCC(=O)NCc3ccc(C)cc3)n12`, the “Percent Effect” value was -78.33%.

In the case of `O=C(CCCc1cn[nH]c1)N1CCOCC(O)C1` (configuration not stated), the “Percent Effect” value is recorded as -19.59%.

For the compound `COC(=O)CN1CC(c2nc(Cc3ccccc3)no2)C1.O=C(O)C(=O)O`, the “Percent Effect” value is reported as -0.4449%.

`Cc1ccc2cc(C3(O)CCN(C(=O)CN4CCCC4)CC3)ccc2n1`: the “Percent Effect” value is reported as 5.836%.

As to `O=C(CCc1cscn1)NS(=O)(=O)c1ccc2c(c1)CCC2`, the “Percent Effect” value was 28.79%.

Take `Cc1occc1C(=O)N1CCC2(CCC(=O)N(CC(N)=O)C2)CC1`: the “Percent Effect” value is 13.97%.

In the case of `Cc1nc2n(n1)CC(Nc1cc(C(F)(F)F)nc3ncnn13)CC2` (configuration not stated), the “Percent Effect” value is -11.7%.

For `COc1ccc(NC(=O)N2CCN(c3ncccn3)CC2)cn1`, the “Percent Effect” value was -75.2%.

Turning to `CC1CCN(Cc2cnc(S(=O)(=O)CC3CC3)n2CC2CCCO2)CC1` (configuration not stated), the “Percent Effect” value is on record as -34.33%.

As to `Cc1ccn(-c2ccccc2NCc2ccccn2)n1`, the “Percent Effect” value is recorded as -12.81%.

On to `CCC(O)CNC(=O)c1coc(COc2ccc3sc(C)nc3c2)n1` (configuration not stated), for which the “Percent Effect” value is -24.85%.

Regarding `O=C(NCC1CCN(C(=O)c2ccoc2)CC1)c1ccccc1Br`, the “Percent Effect” value is reported as -0.2634%.

In the case of `CN1CCC(c2nnc(CN3CCC(O)CC3)n2C)CC1`, the “Percent Effect” value is reported as -3.365%.

On to `O=C(NCC(Cc1cccc(F)c1)N1CCCC1=O)c1ccccc1` (configuration not stated), for which the “Percent Effect” value is listed as -23.79%.

In the case of `CCCC(C)(C)NC(=O)c1ccc(CC2CC(=O)NC2=O)cc1` (configuration not stated), the “Percent Effect” value is recorded as -6.374%.

In the case of `Cc1cc(C[C@@H]2COC[C@@H]2NC(=O)CN2CCCC2)on1`, the “Percent Effect” value was -45.11%.

For the compound `Cc1nc(C)n(CC2CN(CC(=O)Nc3nccs3)CCO2)n1` (configuration not stated), the “Percent Effect” value is -3.889%.

For the compound `O=C(c1cc(=O)[nH]c(=O)[nH]1)N1CCCCC1c1nc2cc(F)ccc2[nH]1` (configuration not stated), the “Percent Effect” value is reported as -2.098%.

For `CCc1ncc2c(n1)CN(Cc1nc(C)c(C)o1)CC2`, the “Percent Effect” value is given as -33.77%.

In the case of `CCc1ncc2c(n1)CN(C(=O)COC)C2`, the “Percent Effect” value is given as -20.5%.

For the compound `CC(C)c1nn(CC(=O)N2CCCCC2)c(=O)c2c1cnn2C(C)(C)C`, the “Percent Effect” value is given as -88.07%.

In the case of `CC(C)C(=O)NCCNc1nccc(-c2cc(C(=O)O)ccn2)n1`, the “Percent Effect” value was found to be 19.02%.

As to `O=C(CCCc1ccc(F)cc1)N1C[C@@H](CN2CCOCC2)[C@@H](CO)C1`, the “Percent Effect” value was -22.43%.

With `CCCN1CCCn2nc(CNC(=O)CCc3scnc3C)cc2C1`, the “Percent Effect” value came out at 25.43%.

As to `CC(O)CN1CCC(CNCc2ccc(S(C)(=O)=O)cc2)CC1` (configuration not stated), the “Percent Effect” value is on record as -16.24%.

In the case of `Cc1cccc(C2(C(=O)NCCCn3cccn3)CC2)c1`, the “Percent Effect” value is on record as -39.94%.

For `OCCOc1nc(-c2ccccc2Cl)no1`, the “Percent Effect” value is reported as -41.46%.

As to `OCC1CCCN1c1cc(NCCNc2ccccn2)ncn1` (configuration not stated), the “Percent Effect” value is listed as -56.18%.

For `Cc1nn(C)c(C)c1C1COCCN1C(=O)Cc1cccc(F)c1` (configuration not stated), the “Percent Effect” value is listed as -11.98%.

For `O=C(c1cccnc1)N1C[C@@H]2CC[C@H](C1)N(Cc1cccc(Cl)c1F)C2`, the “Percent Effect” value stood at 6.232%.

For the compound `CNC(=O)CSc1cnn(CC(=O)Nc2cccc(Cl)c2C)c(=O)c1Cl`, the “Percent Effect” value was -12.29%.

Turning to `CCC1CN(Cc2ccccc2)CCN1Cc1nnc(C2CCC2)o1` (configuration not stated), the “Percent Effect” value amounted to 44.59%.

Turning to `CCc1nc2n(n1)CC(Nc1cc(C)nc3ncnn13)CC2` (configuration not stated), the “Percent Effect” value was -43.49%.

As for `Cc1cnccc1N1CCCN(C(=O)CCCS(N)(=O)=O)CC1`, the “Percent Effect” value was -57.05%.

Consider `CCCS(=O)(=O)c1ncc(CN2CCC(CO)CC2)n1CC1CCCO1` (configuration not stated), for which the “Percent Effect” value is -65.7%.

For the compound `Cc1nc(CC(=O)N2CCC[C@H]2c2nc(C(C)C)no2)cs1`, the “Percent Effect” value was determined as 11.66%.

Regarding `CCCN1CCC(NC(=O)c2ccc(F)cc2I)CC1`, the “Percent Effect” value was 16.82%.

As for `CCN(CC)C(=O)c1ccc(-c2ccsc2)nc1C`, the “Percent Effect” value was -45.64%.

Take `COCCNS(=O)(=O)c1ccc2c(c1)CCN(C(=O)c1cncn1C)C2`: the “Percent Effect” value came out at 4.246%.

For `CC(C#N)CSc1ccccc1NCC(=O)Nc1ccc(F)cc1` (configuration not stated), the “Percent Effect” value is given as 55.09%.

Turning to `Cc1nc[nH]c1-c1nc2cc(S(=O)(=O)N3CCCC3)ccc2n1C`, the “Percent Effect” value is reported as -57.95%.

Turning to `NC(=O)c1cccc(CC2CCN(C(=O)CCCN3CCOCC3)C2)c1` (configuration not stated), the “Percent Effect” value was -44.07%.

Consider `COc1ccc(CN(C)C(=O)CCc2c(C)nc(C)[nH]c2=O)cc1OC`, for which the “Percent Effect” value is on record as -19.42%.

`CCn1c(N)nc2cc(C(=O)NCCc3sccc3C)cnc21`: the “Percent Effect” value is given as -77.79%.

As to `CC(=O)NCCN1CCC(c2cccs2)CC1`, the “Percent Effect” value is -65.41%.

Regarding `NC(=O)CCOc1nc(-c2ccccc2Cl)no1`, the “Percent Effect” value is -31.15%.

Regarding `Cc1nn(C)c(N(C)C)c1CNCC(O)c1ccccc1` (configuration not stated), the “Percent Effect” value was -48.71%.

As to `CCc1noc(C(C)N(C)CC(=O)Nc2ccc(C)cc2)n1` (configuration not stated), the “Percent Effect” value was -42.61%.
